Experimental findings from ChEMBL document CHEMBL1153997, “Discovery of oxazolo[4,5-b]pyridines and related heterocyclic analogs as novel SIRT1 activators” (Bioorg Med Chem Lett, 2009) are described below.

Assay [1] has as its target T1, NAD-dependent protein deacetylase sirtuin-1 (Homo sapiens) (UniProt Q96EB6).
T1 sequence (whole entry): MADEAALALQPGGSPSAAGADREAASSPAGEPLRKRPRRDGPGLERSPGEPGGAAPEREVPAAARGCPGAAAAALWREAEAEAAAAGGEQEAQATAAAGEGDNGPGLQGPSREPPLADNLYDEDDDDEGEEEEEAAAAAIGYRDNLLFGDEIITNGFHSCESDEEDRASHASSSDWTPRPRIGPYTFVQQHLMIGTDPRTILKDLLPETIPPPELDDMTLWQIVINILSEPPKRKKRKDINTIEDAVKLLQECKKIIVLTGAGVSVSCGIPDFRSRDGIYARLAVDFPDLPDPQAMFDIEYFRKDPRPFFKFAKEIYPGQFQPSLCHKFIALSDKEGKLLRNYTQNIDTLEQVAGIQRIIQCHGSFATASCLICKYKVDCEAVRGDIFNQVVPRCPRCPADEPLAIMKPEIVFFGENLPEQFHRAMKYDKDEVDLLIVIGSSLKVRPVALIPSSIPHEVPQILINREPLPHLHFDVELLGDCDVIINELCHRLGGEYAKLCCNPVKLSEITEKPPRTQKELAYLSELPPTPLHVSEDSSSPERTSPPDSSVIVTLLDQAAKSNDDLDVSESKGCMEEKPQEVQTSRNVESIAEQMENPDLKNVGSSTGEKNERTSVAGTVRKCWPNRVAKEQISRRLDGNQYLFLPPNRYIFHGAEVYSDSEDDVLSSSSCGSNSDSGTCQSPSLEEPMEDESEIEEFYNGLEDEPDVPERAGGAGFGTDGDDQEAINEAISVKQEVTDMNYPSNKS
As to the kind of experiment: Activation of human SIRT1 expressed in Escherichia coli BL21 (DE3) assessed as concentration required to increase 50% enzyme activity by fluorescence polarization assay.

Assay [2] deals with T1, NAD-dependent protein deacetylase sirtuin-1 (Homo sapiens). As to the kind of experiment: Activation of human SIRT1 expressed in Escherichia coli BL21 (DE3) assessed as maximum activation of enzyme activity by fluorescence polarization assay.

SMILES strings stand for the structures.

On to `COc1ccc(C(=O)Nc2ccc(-c3nc4ncccc4o3)cc2)cc1OC`, for which the EC1.5 in assay [1] is above 100 µM.
On to `COc1ccc(C(=O)Nc2ccccc2-c2nc3ccccc3[nH]2)cc1CN1CCOCC1`, for which the EC1.5 in assay [1] amounted to 0.5 µM. Besides, the max activation in assay [2] is 314%.
In the case of `COc1ccc(C(=O)Nc2cc(CN(C)C)cc(-c3nc4ncccc4o3)c2)cc1OC`, in assay [1], the EC1.5 stood at 1.1 µM. Also, the max activation in assay [2] is 200%.
The corresponding values for `O=C(Nc1ccccc1-c1nc2ncccc2[nH]1)c1ccc(N2CCOCC2)cc1` are 0.9 µM and 273%.
The corresponding values for `CN(C)c1cccc(C(=O)Nc2cccc(-c3nc4ncccc4o3)c2)c1` are 25 µM and 207%.
On to `COc1ccc(C(=O)Nc2cc(C(=O)NCCN(C)C)cc(-c3nc4ncccc4o3)c2)cc1OC`, for which the EC1.5 in assay [1] is 0.7 µM. Also, in assay [2], the max activation is 240%.
On to `COc1ccc(C(=O)Nc2ccccc2-c2nc3ccccc3[nH]2)cc1OC`, for which the EC1.5 in assay [1] was found to be 0.4 µM. In addition, in assay [2], the max activation came to 595%.
As for `COc1cc(OC)cc(C(=O)Nc2ccccc2-c2nc3ccccc3[nH]2)c1`, in assay [1], the EC1.5 turned out to be 1.7 µM. In assay [2], the max activation turned out to be 180%.
The corresponding values for `COc1ccc(C(=O)Nc2cc(CN3CCNCC3)cc(-c3nc4ncccc4o3)c2)cc1OC` are 1.1 µM and 240%.
On the same counts, the results for `COc1ccc(C(=O)Nc2ccccc2-c2nc3ncccc3o2)cc1OC` are 0.9 µM and 170%.
The corresponding values for `CN(C)c1cccc(C(=O)Nc2ccccc2-c2nc3ncccc3o2)c1` are 4.4 µM and 209%.
As for `Oc1ccc(/C=C/c2cc(O)cc(O)c2)cc1`, in assay [2], the max activation was determined as 200%.
Turning to `COc1cc(C)ccc1C(=O)Nc1ccc(-c2nc3ncccc3[nH]2)cc1`, in assay [1], the EC1.5 is 2.3 µM. Also, the max activation in assay [2] worked out at 150%.
The corresponding values for `COc1ccc(C(=O)Nc2ccccc2-c2nc3ncccc3[nH]2)cc1OC` are 0.5 µM and 270%.
Take `COc1cc(C)ccc1C(=O)Nc1ccccc1-c1nc2ncccc2[nH]1`: in assay [1], the EC1.5 was 4.1 µM. For the same compound, the max activation in assay [2] stood at 250%.
On the same counts, the results for `CN(C)c1ccc(C(=O)Nc2ccccc2-c2nc3ncccc3[nH]2)cc1` are 0.7 µM and 230%.
For the compound `CN(C)c1cccc(C(=O)Nc2ccc(-c3nc4ncccc4o3)cc2)c1`, in assay [1], the EC1.5 is above 100 µM.
On to `O=C(Nc1ccc(CN2CCNCC2)cc1-c1nc2ccccc2[nH]1)c1cnc2ccccc2n1`, for which, in assay [1], the EC1.5 was determined as 0.4 µM. Further, the max activation in assay [2] came to 820%.
Regarding `COc1ccc(C(=O)Nc2cccc(-c3nc4ncccc4[nH]3)c2)cc1OC`, the EC1.5 in assay [1] is 1.4 µM. Moreover, the max activation in assay [2] stood at 324%.
The corresponding values for `COc1ccc(C(=O)Nc2cccc(-c3nc4ncccc4o3)c2)cc1OC` are 6 µM and 240%.
With `COc1ccc(C(=O)Nc2cccc(-c3nc4ncccc4[nH]3)c2)c(OC)c1`, the EC1.5 in assay [1] is 0.5 µM. The max activation in assay [2] worked out at 232%.
With `COc1ccc(C(=O)Nc2ccc(-c3nc4ncccc4[nH]3)cc2)cc1OC`, the EC1.5 in assay [1] stood at 1.6 µM. Besides, the max activation in assay [2] is 180%.
The corresponding values for `CN(C)CCNC(=O)c1cc(NC(=O)c2cccc(N(C)C)c2)cc(-c2nc3ncccc3o2)c1` are 1.8 µM and 330%.
The corresponding values for `COc1ccc(C(=O)Nc2cc(CN3CCNCC3)cc(-c3nc4ncccc4o3)c2)c(OC)c1` are 0.5 µM and 220%.
The corresponding values for `O=C(Nc1ccccc1-c1nc2ccccc2[nH]1)c1cnc2ccccc2n1` are 0.3 µM and 253%.
